Consider one compound from ChEMBL document CHEMBL5252536, “Discovery of VU0467485/AZ13713945: An M4 PAM Evaluated as a Preclinical Candidate for the Treatment of Schizophrenia” (ACS Med Chem Lett, 2017).

As usually defined, the EC50 is the concentration at which the effect is half-maximal. One may read the IC50 as the point on the concentration scale where inhibition reaches its midpoint. Usually Emax stands for the size of the effect at its maximum, as opposed to the concentration needed. Broadly, the Tmax is the time at which the peak concentration occurs. In general, bioavailability refers to the share of a dose that reaches the circulation, judged against a reference dose that is usually intravenous.

The nature of data set [1]: Positive allosteric modulator activity at dog M4 receptor expressed in CHO cells co-expressing Gqi5 in presence of EC20 concentration of acetylcholine by calcium mobilization assay. The data set is classed as cell-based. Background: A change in cytosolic calcium serves as a functional read-out for many receptors and channels.
The test system of data set [2] is CHO. The data set can be described thus: Positive allosteric modulator activity at dog M4 receptor expressed in CHO cells co-expressing Gqi5 assessed as maximal response to ACh by calcium mobilization assay relative to contol. The following applies: Canis lupus familiaris, filed as positive allosteric modulator. The data set is classed as cell-based.
Data set [3] in a line: Positive allosteric modulator activity at cynomolgus monkey M4 receptor expressed in CHO cells co-expressing Gqi5 in presence of EC20 concentration of acetylcholine by calcium mobilization assay. It counts as cell-based. The following applies: Macaca fascicularis.
Data set [4] concerns the target Cytochrome P450 3A4 (Homo sapiens, UniProt P08684). The data set can be described thus: Inhibition of CYP34A in human liver microsomes using midazolam as substrate incubated for 15 mins in presence of NADPH by LC/MS/MS analysis. The data set is classed as ADME, Microsome. Background: Microsomes from liver hold many membrane-bound enzymes, among them those of drug oxidation.

Data set [5] deals with T1, Cytochrome P450 1A2 (Homo sapiens, UniProt P05177).
T1 sequence (P05177 whole entry): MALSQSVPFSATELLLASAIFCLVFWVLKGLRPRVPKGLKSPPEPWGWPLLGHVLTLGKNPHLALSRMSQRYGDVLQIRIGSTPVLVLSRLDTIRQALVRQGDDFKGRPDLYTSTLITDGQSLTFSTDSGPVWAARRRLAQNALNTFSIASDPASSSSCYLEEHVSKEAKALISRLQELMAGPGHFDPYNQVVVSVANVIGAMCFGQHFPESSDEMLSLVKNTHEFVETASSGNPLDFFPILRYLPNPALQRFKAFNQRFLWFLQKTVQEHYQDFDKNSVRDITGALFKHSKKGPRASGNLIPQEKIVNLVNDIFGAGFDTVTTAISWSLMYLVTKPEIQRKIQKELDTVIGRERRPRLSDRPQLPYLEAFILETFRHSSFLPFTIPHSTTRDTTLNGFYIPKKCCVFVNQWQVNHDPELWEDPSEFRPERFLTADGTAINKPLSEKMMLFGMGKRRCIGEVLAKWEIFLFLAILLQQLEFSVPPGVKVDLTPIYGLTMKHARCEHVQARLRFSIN
Put plainly: Activation of CYP1A2 in human hepatocyte using phenacetin as substrate preincubated for 5 days followed by substrate addition and measured after 1 hr by LC-MS/MS analysis. The data set is classed as ADME, cell-based.

The target of data set [6] is CYP3A4 (printed CYP34A) (Homo sapiens, UniProt P08684). The data set can be described thus: Activation of CYP34A in human hepatocyte using midazolam as substrate preincubated for 5 days followed by substrate addition and measured after 1 hr by LC-MS/MS analysis relative to control. The data set is classed as ADME, cell-based. The following applies: hepatocytes, probe midazolam, time 121 hrs.
CYP3A4 (printed CYP34A), sequence (P08684 whole entry): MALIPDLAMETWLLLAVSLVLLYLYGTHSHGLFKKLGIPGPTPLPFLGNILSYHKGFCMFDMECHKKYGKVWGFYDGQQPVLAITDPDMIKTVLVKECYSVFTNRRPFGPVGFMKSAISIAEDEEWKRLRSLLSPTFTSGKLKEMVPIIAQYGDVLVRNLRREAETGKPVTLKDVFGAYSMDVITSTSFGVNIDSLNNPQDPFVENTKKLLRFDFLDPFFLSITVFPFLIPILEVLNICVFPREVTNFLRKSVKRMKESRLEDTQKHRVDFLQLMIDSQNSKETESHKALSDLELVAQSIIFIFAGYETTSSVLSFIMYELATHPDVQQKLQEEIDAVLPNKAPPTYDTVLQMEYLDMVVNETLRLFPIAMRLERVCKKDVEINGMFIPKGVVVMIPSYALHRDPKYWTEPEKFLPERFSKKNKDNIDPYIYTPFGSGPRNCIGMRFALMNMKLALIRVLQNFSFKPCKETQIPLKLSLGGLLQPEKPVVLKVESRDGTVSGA

Data set [7] is described as follows: Tmax in Sprague-Dawley rat at 3 mg/kg,po by LC-MS/MS analysis. The data set is classed as ADME, organism-based. The following applies: in vivo.
Data set [8] can be described thus: Oral bioavailability in Sprague-Dawley rat at 3 mg/kg by LC-MS/MS analysis. It counts as ADME, organism-based. The conditions noted are these: in vivo.
Data set [9] is described as follows: Volume of distribution at steady state in Beagle dog at 3 mg/kg,po or 1 mg/kg,iv by LC-MS/MS analysis. It counts as ADME, organism-based, Canis lupus familiaris. The following applies: in vivo.
Data set [10] is described as follows: Elimination half life in Beagle dog at 3 mg/kg,po or 1 mg/kg,iv by LC-MS/MS analysis. It counts as ADME, organism-based, Canis lupus familiaris. The following applies: in vivo, read-out: beta t1/2 (converted).
Data set [11] is described as follows: Tmax in Beagle dog at 3 mg/kg,po by LC-MS/MS analysis. It counts as ADME, organism-based, Canis lupus familiaris. The following applies: in vivo.
The nature of data set [12]: Ratio of unbound drug level in Sprague-Dawley rat brain to plasma at 1 to 10 mg/kg, po by LC-MS/MS analysis. The following applies: dose 1-10 mg/kg, read-out: K(p,uu,brain). The data set is classed as ADME, organism-based.
The nature of data set [13]: Ratio of unbound drug concentration in Beagle dog brain to plasma at 3 mg/kg, po by LC-MS/MS analysis. The following applies: read-out: K(p,uu,brain). It counts as ADME, organism-based, Canis lupus familiaris.
In data set [14] the target is Cytochrome P450 2D6 (Homo sapiens, UniProt P10635). Put plainly: […] of human CYP2D6 mediated drug metabolism incubated for 5 mins followed by NADPH addition measured after 1 hr by LC-UV/MS analysis relative to control. The data set is classed as ADME. The conditions noted are these: recombinant enzyme, 1.083 h, time 65 min.
Cytochrome P450 2D6, sequence (P10635 whole entry): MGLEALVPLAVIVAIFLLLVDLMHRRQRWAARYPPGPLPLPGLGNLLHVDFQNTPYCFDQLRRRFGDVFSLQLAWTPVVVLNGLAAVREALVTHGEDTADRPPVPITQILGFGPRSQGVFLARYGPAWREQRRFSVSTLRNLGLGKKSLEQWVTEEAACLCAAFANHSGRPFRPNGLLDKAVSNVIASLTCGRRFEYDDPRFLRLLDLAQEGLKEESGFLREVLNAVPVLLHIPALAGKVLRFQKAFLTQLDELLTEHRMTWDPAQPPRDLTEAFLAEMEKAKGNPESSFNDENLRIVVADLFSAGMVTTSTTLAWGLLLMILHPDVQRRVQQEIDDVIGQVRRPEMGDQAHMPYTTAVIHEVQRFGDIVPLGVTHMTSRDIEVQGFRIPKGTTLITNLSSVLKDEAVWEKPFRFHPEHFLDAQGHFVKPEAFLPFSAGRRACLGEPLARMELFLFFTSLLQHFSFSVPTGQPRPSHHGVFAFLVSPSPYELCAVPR
For data set [15], the target named is Cytochrome P450 2C19 (Homo sapiens, UniProt P33261). Put plainly: […] of human CYP2C19 mediated drug metabolism incubated for 5 mins followed by NADPH addition measured after 1 hr by LC-UV/MS analysis relative to control. It counts as ADME. The following applies: recombinant enzyme, 1.083 h, time 65 min.
Cytochrome P450 2C19, sequence (P33261 whole entry): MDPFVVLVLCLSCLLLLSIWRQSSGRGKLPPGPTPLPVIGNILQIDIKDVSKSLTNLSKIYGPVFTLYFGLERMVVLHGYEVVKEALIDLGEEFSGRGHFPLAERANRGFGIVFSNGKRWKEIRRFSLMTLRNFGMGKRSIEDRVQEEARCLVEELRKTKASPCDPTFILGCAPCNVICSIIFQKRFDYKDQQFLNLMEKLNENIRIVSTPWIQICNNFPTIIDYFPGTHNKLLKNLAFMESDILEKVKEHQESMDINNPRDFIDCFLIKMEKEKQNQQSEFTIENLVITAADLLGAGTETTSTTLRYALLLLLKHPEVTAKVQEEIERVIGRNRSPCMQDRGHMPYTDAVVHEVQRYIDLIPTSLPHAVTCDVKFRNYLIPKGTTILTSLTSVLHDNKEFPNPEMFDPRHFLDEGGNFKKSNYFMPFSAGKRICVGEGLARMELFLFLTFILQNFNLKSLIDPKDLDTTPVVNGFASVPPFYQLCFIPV
A short description of data set [16]: Toxicity in rat assessed as effect on autonomical parameters at 56.6 mg/kg, po measured after 6 hrs by Irwin test. It counts as organism-based. The conditions noted are these: in vivo.
Data set [17] in a line: Terminal plasma concentration in rat model of amphetamine-induced hyperlocomotion activity at 1 to 10 mg/kg, po measured after 1.5 hrs. The data set is classed as ADME, organism-based. The following applies: dose 1-10 mg/kg.
Data set [18] concerns Rattus norvegicus. The data set can be described thus: Reversal of MK-801-induced hyperlocomotion activity in rat at 10 to 30 mg/kg,po preincubated for 30 mins followed by MK-801 addition and measured after 60 mins by open field test relative to control. The following applies: dose 10-30 mg/kg, time 90 min, 1.5 h. The data set is classed as functional.
Data set [19] deals with T2, Muscarinic acetylcholine receptor M2 (Homo sapiens, UniProt P08172).
T2 sequence (P08172 whole entry): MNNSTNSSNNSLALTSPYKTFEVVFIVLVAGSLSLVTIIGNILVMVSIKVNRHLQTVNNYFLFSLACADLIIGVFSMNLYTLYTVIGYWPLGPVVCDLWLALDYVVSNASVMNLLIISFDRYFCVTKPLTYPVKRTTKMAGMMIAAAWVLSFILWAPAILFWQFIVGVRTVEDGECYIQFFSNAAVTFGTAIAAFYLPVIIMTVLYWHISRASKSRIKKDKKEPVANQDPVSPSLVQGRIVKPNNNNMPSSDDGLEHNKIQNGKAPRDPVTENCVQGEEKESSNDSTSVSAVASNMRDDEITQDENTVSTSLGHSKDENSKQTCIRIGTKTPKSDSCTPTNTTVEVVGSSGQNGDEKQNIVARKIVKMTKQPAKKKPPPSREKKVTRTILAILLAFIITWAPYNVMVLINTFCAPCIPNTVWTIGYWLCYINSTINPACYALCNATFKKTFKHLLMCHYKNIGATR
The data set can be described thus: Positive allosteric modulator activity at human M2 receptor expressed in CHO cells co-expressing Gqi5 assessed as maximal response to ACh by calcium mobilization assay. The data set is classed as cell-based.

Each structure is given as a SMILES string.

Cytochrome P450 3A4, sequence (P08684 whole entry): as the sequence (P08684 whole entry) above

For `COc1ccc(CNC(=O)c2sc3nnc(C)c(C)c3c2N)cc1F`, the EC50 is 0.087 µM in [1], 0.102 µM in [3], > 50 µM in data set [5] and > 30 µM in data set [19]. Besides, the Activity in data set [2] is 49%; in data set [14], 0.2%; in data set [15] it was 31.2%; in data set [16], “Non-Toxic”; in data set [18] it was 41.1%. The IC50 in data set [4] was > 30 µM. Besides, the Emax at 1 h in [6] is ≤ 1%. Further, the results for the Tmax in data set [7] and in [11] were 1.5 h and 0.75 h, respectively. The compound also yielded a bioavailability in data set [8] of 79%. For the same compound, the Vdss in data set [9] was found to be 1.5 L/kg. For the same compound, in data set [10], the half-life is 1.3 h. Also, the figures for the Kp uu in [12] and in data set [13] were 0.37 and 0.84, respectively. The concentration at 1.5 h in data set [17] amounted to 1800 nM.
